# Experimental data taken from PubChem BioAssay AID489024 (Sanford-Burnham Center for Chemical Genomics, 2010).
# Calls of active or inactive are those of the source.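 The calls were made as follows: active = compounds whose mean EC50, the dose giving half the maximal reporter activation, is at or below a set limit; inactive = the rest.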
# Molecular target: CHO-CHOP luciferase reporter, UPR activation, luminescence
# Experiment: activators of PERK-eIF2a-CHOP UPR arm, confirmation, CHO-CHOP cells, luciferase luminescence (AID 489024);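 also: compounds added alone to reporter cells with no tunicamycin stress co-treatment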
row,Compound,EC50
1,O=C(/C=C/c1cccnc1)c1ccc(NC(=O)c2cccc(Br)c2)cc1,inactive
2,C/C(=N\NC(=O)c1cccc2ccccc12)c1ccccn1,3.22 µM
3,Cc1cccc(Cn2cc(/C=C/[N+](=O)[O-])c3ccccc32)c1,7.81 µM
4,COc1ccc(-c2oc(NC(=O)CCl)c(C#N)c2-c2ccc(OC)cc2)cc1,12.9 µM
5,Cc1cc(C(=O)CCl)c(C)n1CC1COc2ccccc2O1 (stereo unspecified),8.22 µM
6,Cc1ccc(/C=C/C(=O)c2ccc([N+](=O)[O-])o2)cc1,6.46 µM
7,C/C(=N\NC(=O)c1cccc(Br)c1)c1ccccn1,2.36 µM
8,COc1ccc(C(=O)N/N=C(\C)c2ccccn2)cc1OC,2.82 µM
9,O=[N+]([O-])c1ccc(C=Nc2ccc(Cl)c([N+](=O)[O-])c2)s1,> 80 µM (inactive)
10,Cc1cc(C(=O)CCl)c(C)n1CCc1ccc(F)cc1,7.77 µM
11,O=C(CCl)Nc1cc(S(=O)(=O)N2CCCCCC2)ccc1Cl,> 80 µM (inactive)
12,COc1ccc(Cn2c(SCc3ccc(C)cc3)nc3cc(OC)c(OC)cc3c2=N)cc1Cl,14 µM
13,COc1ccc(OC)c(N=Cc2c(O)c3ccccc3oc2=O)c1,7.55 µM
14,COc1ccc2cc1Oc1ccc(cc1)CC1c3c(cc(OC)c4c3Oc3cc5c(cc3O4)CCNC5C2)CCN1C (stereo unspecified),> 80 µM (inactive)
15,C/C(=N\NC(=O)c1cc2ccccc2cc1O)c1ccccn1,3.71 µM
16,CCOc1cc(/C=C2/C(=N)N3C=CSC3=NC2=O)ccc1OCCCOc1ccccc1C,inactive
17,Cc1ccc(C(=O)Oc2ccc(Cl)c3cccnc23)cc1[N+](=O)[O-],inactive
18,CSc1nnc(NC(=O)c2nc(S(=O)(=O)Cc3cccc(C)c3)ncc2Cl)s1,> 80 µM (inactive)
19,C=CCn1nc([N+](=O)[O-])nc1Sc1cccc2cccnc12,6.67 µM
20,COc1cc(SC#N)ccc1N=Cc1c(C)[nH]n(-c2ccc(C)c(C)c2)c1=O,12.8 µM
21,CCOc1ccc2nc(SC3CC(=O)N(c4ccc(C)cc4)C3=O)sc2c1 (stereo unspecified),> 80 µM (inactive)
22,O=C(/C=C/c1ccco1)NC(=S)Nc1ccc(O)c(-c2nc3ccccc3s2)c1,11.8 µM

row,Compound,EC50
1,COc1ccc(-c2cc(=O)oc3c(C)c(OC(=O)c4cccs4)ccc23)cc1,inactive
2,O=C(NCc1cccnc1)/C(=C\c1ccc(-c2ccc(Br)cc2)o1)S(=O)(=O)c1ccccc1,6.67 µM
3,N#CC(C#N)=C1C=CC=CN1/C(=C\c1ccccc1)C(=O)c1cccs1,> 80 µM (inactive)
4,Cc1ccc(S(=O)(=O)Nc2cccc3cccnc23)cc1,4.41 µM
5,CCOc1cc(/C=C2/C(=O)ON=C2C)ccc1OCc1ccccc1F,15.9 µM
6,O=C1C=CC(=O)N1c1ccc(N2CCCCC2)cc1,> 80 µM (inactive)
7,CNC[C@@H](Cc1ccccc1)NC[C@@H](CC1CCCCC1)NCCCc1ccccc1,4.63 µM
8,O=C(CSc1nc2ccc(Nc3nc(N4CCOCC4)nc(N4CCOCC4)n3)cc2s1)Nc1ccccc1F,14.7 µM
9,Cn1nnnc1Sc1ncnc2scc(-c3ccc([N+](=O)[O-])cc3)c12,12.3 µM
10,O=C(NCc1cccnc1)/C(=C/c1ccc(-c2ccc(Cl)cc2)o1)S(=O)(=O)c1ccccc1,6.18 µM
11,COc1cccc2sc(Nc3nc(C)c(C(C)=O)s3)nc12,14.7 µM
12,O=C(Nc1nc2ccc(F)cc2s1)c1ccccn1,7.16 µM
13,C[C@@H]1C[C@@H]2O[C@H]2/C=C\C=C\C(=O)Cc2c(Cl)c(O)cc(O)c2C(=O)O1,5.32 µM
14,Cc1ccc(C(=O)NC(C#N)=C(Cl)Cl)cc1,> 80 µM (inactive)
15,CC(=O)c1cccc(NC(=O)CSc2ncc(C(=O)Nc3ccccc3)c(=O)n2C)c1,7.28 µM
16,COc1ccc(-n2c(C)cc(C(=O)CCl)c2C)cc1,7.13 µM
17,Oc1ccc(-c2csc(Nc3ccccn3)n2)cc1O,3.7 µM
18,CSC(=S)N/N=C(\C)c1ccccc1,12.3 µM
19,CCOC(=O)c1c(NC(C)=O)sc2c1CCC(C=O)=C2Sc1ccccc1,7.12 µM
20,Cc1ccc(-c2csc3ncnc(Sc4nnc(CN5CCCCCC5=O)o4)c23)cc1,17.3 µM
21,Cc1ccc(C)c(C(=O)Cn2ncc(Cl)c(Cl)c2=O)c1,10.8 µM
22,COc1ccccc1-c1cc(C(F)(F)F)nc(S(=O)(=O)CCCC(=O)N2CCCCC2C)n1 (stereo unspecified),7.68 µM

row,Compound,EC50
1,CCOc1ccc2c(c1)C(=NNC(=O)c1ccncc1)c1cc(OCC)ccc1-2,8.63 µM
2,Cc1ccc(-c2cc(-c3ccc(C)cc3)[n+](-c3ccccc3)c(-c3ccc(C)cc3)c2)cc1,3.77 µM
3,Cc1ccc(-n2nc3cc(C)c(NC(=S)NC(=O)/C=C/c4ccco4)cc3n2)cc1,16.2 µM
4,Cc1ccc(-c2nn3c(C)nnc3s2)cc1NC(=O)c1ccc(-c2ccc(Cl)cc2Cl)o1,14 µM
5,CCc1ccc(NC(=O)C(CC)Sc2nc3cc4c(cc3c(=O)n2Cc2ccco2)OCO4)cc1 (stereo unspecified),14.9 µM
6,COc1cccc(N=Cc2c(O)c3ccccc3oc2=O)c1,8.69 µM
7,C=CCNC(=S)N/N=C(\C)c1ccccn1,2.5 µM
8,Cc1cc(C)c(C(CC(=O)c2cccs2)C(C#N)C#N)c(C)c1 (stereo unspecified),14.2 µM
9,Cc1cc(C(=O)CCl)c(C)n1Cc1ccco1,7.35 µM
10,Cc1ccc2oc(Nc3nc(-c4ccccc4)cc(=O)[nH]3)nc2c1,7.41 µM
11,Cc1c(NC(=O)CSc2cccc3cccnc23)c(=O)n(-c2ccccc2)n1C,6.53 µM
12,Oc1ccc(-c2csc(Nc3cccc4ccccc34)n2)cc1O,3.19 µM
13,COc1cc([N+](=O)[O-])cc(/C=N/NC(=O)c2ccc(NC(=O)c3ccc(C)cc3)cc2)c1O,12.3 µM
14,CCOC(=O)c1ccc(N=C2C(=S)N(c3ccc(C(=O)OCC)cc3)C(=N)N2/N=C/c2ccccc2)cc1,> 80 µM (inactive)
15,O=C(N/N=C(\c1ccccc1)c1ccccn1)c1cccc([N+](=O)[O-])c1,7.44 µM
16,O=S(=O)(c1ccc(Cl)cc1)c1snnc1-c1ccccc1,11.1 µM
17,CSc1nnc(NC(=O)c2nc(S(=O)(=O)Cc3ccccc3)ncc2Cl)s1,> 80 µM (inactive)
18,COC(=O)c1cc(=O)n(Cc2ccc3c(c2)OCO3)c(=Nc2ccc(F)c(Cl)c2)s1,> 80 µM (inactive)
19,C=CCn1c(O)c(N=NC(=S)Nc2ccccc2F)c2cc(S(=O)(=O)N3CCOCC3)ccc21,7.34 µM
20,N=c1c(-c2nc3ccccc3[nH]2)cc(C(=O)c2ccco2)nn1-c1ccccc1,15.2 µM
21,COc1cc(OC)cc(C(=O)NC(=S)Nc2cc3oc4ccccc4c3cc2OC)c1,inactive
22,Cc1ccc(C)c(N=Cc2c(O)c3ccccc3oc2=O)c1,6.28 µM

row,Compound,EC50
1,C/C(CC(C)(C)C1CCCCC1)=N\NC(N)=S,12 µM
2,CCCN1Cc2cccc(C(=O)Nc3ccc(-c4nc5ccccc5[nH]4)cc3)c2C1=O,> 80 µM (inactive)
3,O=[N+]([O-])c1ccccc1S(=O)(=O)Nc1cccc2cccnc12,7.67 µM
4,Cn1nnnc1Sc1ncnc2scc(-c3cc4ccccc4o3)c12,9.26 µM
5,COc1cc2nc(=S)n3[nH]c(CCn4nc(C)cc4C)nc3c2cc1OC,3.93 µM
6,COc1ccc(/C=C/C(=O)Oc2ccc(C)cc2)cc1,inactive
7,CCOC(=O)/C(=C\c1ccc(Cl)cc1)c1nc2sc(C)c(C)c2c(=O)[nH]1,> 80 µM (inactive)
8,Nc1c(C(=O)Nc2ccc(S(=O)(=O)N3CCCC3)cc2)sc2nc3ccc(OC(F)(F)F)cc3cc12,> 80 µM (inactive)
9,Cn1c(/C=C/c2ccc([N+](=O)[O-])o2)nc2ccccc2c1=O,6.93 µM
10,CCOC(=O)C(CC)(CC)C(=O)/C=C/c1cccc(Br)c1,11.8 µM
11,Cc1[nH]c2c(C)cccc2c1CCNC(=O)c1ccc2c(c1[N+](=O)[O-])C(=O)c1ccccc1C2=O,6.46 µM
12,Cc1ccc(C(=O)Cn2c(C(=O)/C=C/c3ccccc3)nc3ccccc32)cc1,13.7 µM
13,O=C(Nc1ccc2oc(-c3ccncc3)nc2c1)c1ccc([N+](=O)[O-])o1,0.82 µM
14,COc1cc(C(=O)Sc2ccc(Cl)cc2)cc(OC)c1OC,15 µM
15,COc1cc(/C=C/[N+](=O)[O-])ccc1O,> 80 µM (inactive)
16,O=C(Nc1nc(-c2ccc(F)c(F)c2)cs1)Nc1ccc(F)cc1F,> 80 µM (inactive)
17,COc1cc(/C=C(/C#N)c2nc3ccccc3[nH]2)ccc1OCC(=O)Nc1ccccc1C(C)C,8.27 µM
18,O=C(Nc1ccc(C(F)(F)F)cc1)c1cc(-c2cccnc2)nc2ccc(Br)cc12,8.66 µM
19,O=C(Nc1nc(-c2ccccn2)cs1)c1cc(Cl)ccc1[N+](=O)[O-],6.29 µM
20,CCc1cc2c(=O)[nH]c(-c3ccccn3)nc2s1,2.61 µM
21,COc1ccc(CCn2c(C)cc(C(=O)CCl)c2C)cc1OC,> 80 µM (inactive)
22,COc1ccc(-n2nc(C#N)c(Cl)cc2=O)cc1,3.23 µM

row,Compound,EC50
1,COc1ccc(C(=O)Sc2ccc(Cl)cc2)cc1OC,9.38 µM
2,CCCN(CCC)C(=O)c1cc([N+](=O)[O-])cc2c1-c1ccc([N+](=O)[O-])cc1C2=C(C#N)C#N,13.3 µM
3,CCOc1ccc(N2C(=O)CC(N(O)c3ccccc3)C2=O)cc1 (stereo unspecified),9.63 µM
4,C[C@@H]1CN([C@H](C)CO)C(=O)c2cc(NC(=O)Nc3ccc(C(F)(F)F)cc3)ccc2O[C@H]1CN(C)Cc1ccc(Cl)c(Cl)c1,> 80 µM (inactive)
5,CCOC(=O)C(=Cc1ccc(F)cc1)C(=O)OCC,> 80 µM (inactive)
6,O=C(c1ccc(Br)cc1)C(CN1CCOCC1)c1ccccc1 (stereo unspecified),8.78 µM
7,Cc1nc(SCC(=O)Nc2ccc(F)cc2)c(C#N)c(C)c1CC(=O)c1ccc(Br)cc1,> 80 µM (inactive)
8,O=C(CSc1ccccn1)Nc1nonc1[N+](=O)[O-],19.1 µM
9,COc1ccccc1N=c1oc2c(OC)cccc2cc1C(=O)NCc1ccco1,> 80 µM (inactive)
10,CCn1c(O)c(C2=c3ccccc3=NC2=O)c2cc(Br)ccc21,15.4 µM
11,O=C(CCN1C(=O)/C(=C\c2ccccc2F)SC1=S)N1CCCCC1,> 80 µM (inactive)
12,Oc1ccc(-c2nc(-c3ccc(O)c(O)c3)cs2)cc1,9 µM
13,CCCOc1ccc(N2C(=O)CC(N(O)c3ccccc3)C2=O)cc1 (stereo unspecified),7.23 µM
14,Cc1ccc(CS(=O)(=O)c2ncc(Cl)c(C(=O)Nc3ccc(OC(F)F)cc3)n2)cc1,> 80 µM (inactive)
15,Cc1c(C#N)c(NC(=O)CCl)n(Cc2ccc(F)cc2)c1C,16 µM
16,COC(=O)c1cc(=O)n(CCc2ccc(OC)c(OC)c2)c(=Nc2ccc(F)c(Cl)c2)s1,16.9 µM
17,CCOc1ccc(NC(=S)NC(=O)/C=C/c2ccc(OC)c(OC)c2)c([N+](=O)[O-])c1,> 80 µM (inactive)
18,CCCCC1CCC(C(=O)N(CCCC)c2c(N)n(CCCC)c(=O)[nH]c2=O)CC1 (stereo unspecified),> 80 µM (inactive)
